Experimental data as given in US20240050358A1, “PERSONAL CARE COMPOSITION” (Conopco, Inc., d/b/a UNILEVER, priority 2020, published 2024).

Test system: interleukin (IL)-6
Assay: Human immune cell line THP-1 in vitro assay: IL-6 by ELISA after LPS co-treatment
Type: cell-based
Settings: PMA-differentiated THP1-XBlue cells co-treated with E. coli LPS and composition for 24 hours; supernatant ELISA; percentage to LPS-treated cells (=100%); three repeats
Method: Human Immune Cell Line THP-1 In Vitro Assay The following procedure was used to determine the anti-inflammation efficacy: THP1-XBlue™ (Cat No.: thpx-sp, InvivoGen, San Diego, CA) cells were cultured as suspense in RPMI 1640 medium supplemented with 10% fetal bovine serum (FBS), penicillin (10 U/mL)-streptomycin (10 μg/mL) (Gibco, Invitrogen, Carlsbad, CA). Cells were differentiated in 24-well plates at the density of 5×10^5 cells/well with 100 nM phorbol-12-myristate-13-acetate (PMA) for 72 hours. Cells were then co-treated with pure E. coli lipopolysaccharides (LPS) and various compositions in Table 1. […] Expression of IL-6 was calculated as the percentage to LPS-treated cells which was designated as 100%. P value was analysed by Student's t-test comparing combination groups and individual compound groups (expression of IL-6, three repeats for each group).

## CCCCCCC(O)CCCCCCCCCCC(=O)O (stereo not shown) [B, 12-hydroxystearic acid]
  Expression of IL-6 (%): 91.9%
